Counter-ions that a name gives are not always drawn.
Biological target: T1, human MCH-1R (Homo sapiens, UniProt Q99705)
T1 construct: expressed in transfected cells; host or cells: CHO-K1 (American Type Culture Collection), vector pEF/mic/cyto (Invitrogen)
Assay: MCH binding inhibition test ([125I]MCH binding to membranes of MCH-1R expressing CHO-K1 cells)
Details: 50% inhibition concentration to the specific [125I]MCH binding; 50 pM [125I]MCH, membranes of MCH-1R expression CHO-K1 cells, 25° C., one hour, pH 7.4
From the text: Pharmacological Test Example 1 (MCH Binding Inhibition Test)
A human MCH-1R encoding cDNA sequence [FEBS Letters, Vol. 398, 253 (1996); Biochimica et Biophisica Acta, Vol. 1401, 216 (1998)] was cloned to a plasmid vector pEF/mic/cyto (Invitrogen Corporation). The obtained expression vector was transfected to host cells CHO-K1 (American Type Culture Collection) using Lipofectamine Plus Reagent (Life Technology Inc.) to provide MCH-1R expression cells.
Membrane samples prepared from the MCH-1R expression cells were incubated with each test compound and 50 pM of [^125I]MCH (NEN Co.), in an assay buffer (50 mM Tris buffer comprising 10 mM magnesium chloride, 2 mM ethylenediamine tetraacetate, 0.01% bacitracin and 0.2% bovine serum albumin; pH 7.4) at 25° C. for an hour, followed by filtration through a glass filter GF/C (Wattman Co.). After washing the glass filter with 50 mM Tris buffer (pH 7.4) comprising 10 mM magnesium chloride, 2 mM ethylenediamine tetraacetate and 0.04% Tween-20, the radioactive activity on the glass filter was measured. The non-specific binding was measured in the presence of 1 μM human MCH and 50% inhibition concentration (IC50 value) of each test compound to the specific [^125I,]MCH binding was determined.

T1 sequence (Q99705 whole entry): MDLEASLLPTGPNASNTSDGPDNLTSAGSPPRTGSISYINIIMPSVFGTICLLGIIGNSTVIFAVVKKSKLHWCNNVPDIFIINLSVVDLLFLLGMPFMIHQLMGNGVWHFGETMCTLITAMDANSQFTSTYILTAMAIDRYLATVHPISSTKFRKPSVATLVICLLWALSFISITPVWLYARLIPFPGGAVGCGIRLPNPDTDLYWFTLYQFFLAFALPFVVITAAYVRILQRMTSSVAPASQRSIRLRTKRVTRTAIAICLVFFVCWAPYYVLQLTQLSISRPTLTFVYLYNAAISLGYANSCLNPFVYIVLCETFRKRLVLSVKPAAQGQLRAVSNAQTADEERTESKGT

SMILES	IC50
O=C(Nc1ccc(CN2CCOCC2)cc1)c1cc2cc(OCc3ccccc3)ccc2[nH]1 [Example 1-1, 5-(benzyloxy)-N-[4-(morpholinomethyl)phenyl]-1H-indole-2-carboxamide hydrochloride]	9.6 nM
CCN(CC)Cc1ccc(NC(=O)c2cc3cc(OCc4ccccc4)ccc3[nH]2)cc1 [Example 1-3, 5-(benzyloxy)-N-{4-[(diethylamino)methyl]phenyl}-1H-indole-2-carboxamide]	5.6 nM
O=C(Nc1ccc(CN2CCCC2)cc1)c1cc2cc(OCc3ccccc3)ccc2[nH]1 [Example 2-6, 5-(benzyloxy)-N-[4-(1-pyrrolidinylmethyl)phenyl]-1H-indole-2-carboxamide trifluoroacetate]	2.6 nM
COCCN(C)Cc1ccc(NC(=O)c2cc3cc(OCc4ccccc4)ccc3[nH]2)cc1 [Example 2-10, 5-(benzyloxy)-N-(4-{[(2-methoxyethyl)(methyl)amino]methyl}phenyl)-1H-indole-2-carboxamide]	4.6 nM
